Here are results for one compound from patent publication US11945806B2, “Stabilization of amyloidogenic immunoglobulin light chains” (The Scripps Research Institute, priority 2019, dated 2024).

The subject of experiment [1] is WIL-FL*. Nature of the experiment: FP artefact counterscreen (compounds added after 24 h of proteinase K treatment). The note with it: compound added after 24 h PK treatment; mean ± sd, n=3. Type of experiment: biochemical, human. As to the method:
Secondly, to remove compounds that interfere with the FP measurement, the primary screen was repeated in triplicate but compounds were added after 24 h of proteinase K treatment (FIG. 1f). […] Bona fide hits should retain no FP beyond the low control.
In general terms: Counterscreens check selectivity or assay interference.

The target of experiment [2] is T1, WIL-FL (Homo sapiens, UniProt P01721). Nature of the experiment: Fluorogenic coumarin titration. Type of experiment: binding. The note with it: 0.05 in buffer.
Experiment [3] has as its system WIL-FL and JTO-FL variants with F98D mutation. The experiment is described as follows: Fluorogenic coumarin titration, F98D variants. The note with it: 1 at 1 μM; presence or absence of the C214 inter-chain disulfide bond. Type of experiment: binding, human. On the procedure:
(§1) Fluorogenic coumarin titration. LCs were concentrated to 200 μM in centrifugal concentrators with a 10 kDa membrane, unless the available material was limiting. […] Fluorescence of 1 was measured on a Gemini plate reader (Molecular Devices) using an excitation wavelength of 373 nm and emission wavelength of 445 nm. Data were normalized platewise to the plateau fluorescence value for WIL-FL to calculate the fraction of 1 bound.
To further test the hypothesis that 1 binds at the interface between the V-domains, we measured binding of 1 to WIL-FL and JTO-FL variants with mutations designed to disrupt the dimer (22). The F98D mutation, which disrupts the V-domain-V-domain interface, rendered binding of 1 (1 μM) undetectable in the presence or absence of the C214 inter-chain disulfide bond (FIG. 2d, right panel).

Experiment [4] concerns the target human serum albumin (HSA) (Homo sapiens, UniProt P02768). Nature of the experiment: Binding of 1 to albumin by fluorescence of 1. The source says:
Therefore, kinetic stabilizer binding selectivity to FL LCs in preference to other plasma proteins is important to minimize the proportion of free FL LC. Albumin binds many small molecules in blood, typically with μM KD values.

The next experiment deals with JTO-V (Homo sapiens, UniProt P01721). The experiment is described as follows: NMR ZZ-exchange experiment. It counts as binding. As to conditions: JTO-V2•1 complex. On the procedure:
Chemical exchange saturation transfer (CEST) experiments were acquired on WIL-V samples at 0.4 mM in the presence of 0.2 or 0.3 mM 1 using a multi-site excitation scheme (16). […] Further details of the analysis of these experiments are given in the Supplemental NMR Analysis described below.

A further experiment concerns 5J8 Fab. Nature of the experiment: PK proteolysis. Type of experiment: biochemical, human.
The test system of experiment [5] is isolated V-domains from WIL, ALMC2 and 6aJL2. The experiment is described as follows: Fluorogenic coumarin titration, isolated V-domains. It counts as binding, human. As to conditions: 1 at 1 μM. As to the method: as §1
(§2) A successful kinetic stabilizer should, but is not required to, bind to and stabilize patient LCs with a vast range of sequences (30, 31). To ask whether 1 can stabilize other FL LC sequences, we measured binding of 1 to three more recombinant λ6-57 FL LC disulfide-linked dimers: JTO-FL; ALMC2-FL, an AL-associated LC sequence derived from the ALMC2 cell line (32); and the germline sequence 6aJL2-FL.

A further experiment concerns LCs with C214S mutation. Nature of the experiment: Fluorogenic coumarin titration, C214S LCs. Type of experiment: binding, human. As to conditions: 1 at 1 μM. On the procedure: as §1, §2
Experiment [6] deals with T2, WIL-FL* (Homo sapiens, UniProt P01721, K101C, form not given). The experiment is described as follows: PCFP assay with thermolysin. As to conditions: mean ± sd, n=3; 6.75 μM compound.
Experiment [7] deals with T1, WIL-FL. Nature of the experiment: PK proteolysis of unlabeled WIL-FL by SDS-PAGE. The note with it: WIL-FL 10 μM, small molecule 100 μM, t=2 h.
Description: The experiment in FIG. 1b measured simultaneous proteolysis of labeled and unlabeled LC by adding 20 nM WIL-FL* or JTO-FL* to 5 μM WIL-FL or JTO-FL, respectively. Fluorescein fluorescence images of the SDS-PAGE gels were recorded, after which the gels were Coomassie stained and imaged.
The target of experiment [8] is T2, WIL-FL*. Nature of the experiment: Protease-coupled fluorescence polarization (PCFP) assay with proteinase K. As to conditions: secondary screen, mean ± sd, n=3; 6.75 μM compound; FP retention after 24 h at 22° C., normalized to high and low controls. A general note: Fluorescence polarisation rises when a labelled molecule tumbles more slowly, as on binding a larger partner.

Sequence of human serum albumin (HSA) (P02768 25-609): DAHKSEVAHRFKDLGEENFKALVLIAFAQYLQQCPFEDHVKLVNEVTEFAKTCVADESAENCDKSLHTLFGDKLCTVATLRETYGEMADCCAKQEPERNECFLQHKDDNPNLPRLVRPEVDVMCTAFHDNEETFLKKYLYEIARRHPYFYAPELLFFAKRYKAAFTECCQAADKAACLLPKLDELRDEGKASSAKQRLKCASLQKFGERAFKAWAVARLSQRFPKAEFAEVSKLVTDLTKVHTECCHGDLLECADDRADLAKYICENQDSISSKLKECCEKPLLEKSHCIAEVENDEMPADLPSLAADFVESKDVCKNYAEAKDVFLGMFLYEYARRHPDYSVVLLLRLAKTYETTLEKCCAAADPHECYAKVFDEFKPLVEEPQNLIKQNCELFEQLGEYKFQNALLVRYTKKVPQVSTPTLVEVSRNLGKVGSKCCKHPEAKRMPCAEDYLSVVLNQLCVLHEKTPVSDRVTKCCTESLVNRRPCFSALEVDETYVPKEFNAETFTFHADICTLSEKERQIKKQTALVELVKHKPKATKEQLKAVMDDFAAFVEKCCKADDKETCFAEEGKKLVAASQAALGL

By Kd is commonly meant the concentration at which binding is half-saturated. A higher Kd goes with weaker binding. Consider `CCN(CC)c1ccc2c(C)cc(=O)oc2c1` [Compound 1, 7-diethylamino-4-methylcoumarin], for which the “Counterscreen activity (%)” value with WIL-FL* [1] is listed as −8.07 ± 3.3%. The “FP of 1 in the WIL-FL•1 complex” value at WIL-FL [2] was determined as 0.35. Further, the “binding of 1” value in [3] was “undetectable”. The Kd in experiment [4] turned out to be 37 ± 3 µM. Besides, the “affinity of 1 for albumin in the presence of diflunisal” value in experiment [4] (100 μM diflunisal) was “reduced”. For the same compound, on JTO-V, the off-rate was found to be 57 ± 2 s⁻¹. In addition, in the experiment with 5J8 Fab, the “protection from PK proteolysis” value was “does not protect”. Moreover, the “affinity for 1” value in [5] is recorded as “reduced affinity”. Moreover, the “affinity of LCs for 1” value with LCs with C214S mutation is listed as “reduces the affinity”. The “Thermolysin activity (%)” value at WIL-FL* [6] was 36.4 ± 2.0%. Besides, the “protection of WIL-FL against PK proteolysis” value on WIL-FL [7] was “protects this FL LC against PK proteolysis”. The “PK activity (%)” value on WIL-FL* [8] stood at 47.8 ± 0.7%.
